Common to all, as to type: cell-based, human
In one assay the test system is HCT116 tumor cells. Nature of the assay: qPCR structure-splicing profile over the gene panel. Conditions: HCT116, 24 h, 100, 250, 500 nM, compared to 1. How it is done:
(§1) HCT116 tumor cells were treated with analogues at 100 nM (light grey), 250 nM (grey), or 500 nM (black) for 24 h and then cellular RNA was isolated and purified for qPCR. Primers were designed to evaluate intron retention or exon skipping, direct responses to splice modulator treatment. Genes evaluated included those involved in splicing regulation (SF3A1, SF3A3, SF3B1, SF3B2), apoptosis (MCL-1L), and protein folding (DNAJB1), relative to the unspliced control GAPDH. For alternative splicing regulator (SF2), primers were designed to evaluate gene expression, which changes in response splice modulator treatment for SF2 relative to the unspliced control GAPDH. (—) denotes untreated cells.
(§2) For these studies, we evaluated the expression of genes involved in splicing regulation (SF3A1, SF3A3, SF3B1, SF3B2), apoptosis (MCL-1L), protein folding (DNAJB1), and cell cycle regulation (AURKA, PLK-1) relative to the unspliced control GAPDH. Primers were designed to evaluate intron retention or exon skipping, direct responses to splice modulator treatment. The master splicing regulator alternative splicing factor (SF2) was also evaluated, with the primers for this gene designed to evaluate overall gene expression, which changes in response to splice modulator treatment.
(§3) From this 4 h study (FIG. 14), a small set of analogs (1, 1b, 1g, 1d, 1e, 1i and 1j) were selected to evaluate if effects on splicing when presented for a longer 24 h period. […] Using identical procedures as that used for 4 h, HCT116 cells were treated with three concentrations (100 nM, 250 nM and 500 nM) of each analog for 24 h. Multiple concentrations were used as a means to check further validate the use of the GI50 concentration in our prior study (FIG. 14). As before, none of the concentrations tested led to significant changes in cell viability over the 24-hour time window, ensuring that changes in gene expression were not due to cell death.
Cells were treated with 1 or 1a-1j in media (McCoy's 5a (Life Technologies) supplemented with 10% FBS, 2 mM L-glutamine, and 100 U mL^−1 of penicillin and 100 μg mL^−1 of streptomycin 0.5% DMSO) for 4 h or 24 h. Untreated cells were considered were used as negative control. Total RNA was isolated using mirVana miRNA isolation kit (Life Technologies). A 1 μg sample of RNA was subjected to DNAseI from a TURBO DNA free kit (Life Technologies). The cDNA was prepared by using SuperScript III reverse transcriptase kit (Life Technologies). The amount of unspliced RNA for different genes was determined using Power SYBR Green PCR master mix (Applied Biosystems) by qPCR using specific primers for each gene. qPCR using 2.5 μM of each primer was performed on 5 ng of the obtained cDNA. qPCR conditions were as follows: 95° C. for 10 min for one cycle, then 95° C. for 10 min for one cycle, then 95° C. for 30 s, 55° C. for 60 s, 72° C. for 60 s, for 40 cycles using the MXPro. Quantification cycle (Cq) values were identified for each sample, and then RNA levels were calculated using 2-ΔΔCT method. GAPDH was used as a control for normalization. At least three replicates were conducted for each compound. Namely, all genes explored in this study were evaluated from the same cell cultures. Here, individual cultures were used for each compound explored and at least three replicates were used for each compound. While experimental variation occurred between the different compound treatments, the levels of the different intron retention, exon skipping or RNA expression were collected from the same cellular material. Statistics were calculated using a standard one-way ANOVA; p values were represented so that * signifies p<0.0001. HCT116 were treated with analogs 1-1j ranging from 0.1-5000 nM for 72 hours, then cell viability was measured using the MTS assay. GI50 values and confidence intervals were calculated using GraphPad (Table 12).
Background: Quantitative PCR measures a nucleic acid by following its amplification.

A further assay deals with SF3B2. Kind of assay: qPCR splicing analysis, SF3B2 intron retention. Conditions: for SF3B2 intron retention (level of intron retention): HCT116, 4 h, 20 times GI50, qPCR relative to GAPDH; for SF3B2 intron retention: HCT116, 24 h, 100, 250, 500 nM, compared to 1. The method, then:
as §1, with “each analogue” for “analogues”, “20 times the G150 value (Table 12)” for “100 nM (light grey), 250 nM (grey), or 500 nM (black)”, “4 hours” for “24 h”, “(MCL-1L),” for “(MCL-1L), and”, “(DNAJB1), and cell cycle regulation (AURKA, PLK-1)” for “(DNAJB1),”, “(−)” for “(—)”
as §1
(§4) Next, we turned our efforts to explore the ability of these analogues to modulate splicing. […] We treated cells for 4 h so that we could evaluate early changes in splicing activity, and then cellular RNA was isolated and purified for analyses by qPCR (FIG. 14). Most importantly, none of the concentrations tested led to significant changes in cell viability, ensuring that changes in gene expression were not due to cell death.
as §2, §3
(§5) Cells were treated with 1 or 1a-1j in media (McCoy's 5a (Life Technologies) supplemented with 10% FBS, 2 mM L-glutamine, and 100 U mL^−1 of penicillin and 100 μg mL^−1 of streptomycin 0.5% DMSO) for 4 h or 24 h. Untreated cells were considered were used as negative control. Total RNA was isolated using mirVana miRNA isolation kit (Life Technologies). A 1 μg sample of RNA was subjected to DNAseI from a TURBO DNA free kit (Life Technologies). The cDNA was prepared by using SuperScript III reverse transcriptase kit (Life Technologies). […]

The test system of another assay is SF3A1. Nature of the assay: qPCR splicing analysis, SF3A1 intron retention. The conditions noted are these: for SF3A1 intron 6 retention (level of intron retention): HCT116, 4 h, 20 times GI50, qPCR relative to GAPDH. How it is done: as §1, with “each analogue” for “analogues”, “20 times the G150 value (Table 12)” for “100 nM (light grey), 250 nM (grey), or 500 nM (black)”, “4 hours” for “24 h”, “(MCL-1L),” for “(MCL-1L), and”, “(DNAJB1), and cell cycle regulation (AURKA, PLK-1)” for “(DNAJB1),”, “(−)” for “(—)”
as §1, §4, §2, §3, §5

As to `CC[C@H](OC)[C@@H](C)[C@H]1O[C@@H]1[C@@H](O)[C@H](C)/C=C/C=C(\C)[C@H]1OC(=O)C[C@H](O)CC[C@@](C)(O)[C@@H](OC(C)=O)/C=C/[C@@H]1C` [Analog 1d, 17S-FD-895], the “splicing activity over the genes tested” value with HCT116 tumor cells was “modest switch in gene selectivity”. Besides, in the assay on SF3B2, the “SF3B2 intron retention (level of intron retention)” value is listed as “improved efficacy” and the SF3B2 intron retention entry is given as “concentration dependent increased intron retention”. Moreover, the SF3A1 intron retention entry with SF3A1 (HCT116, 24 h, 100, 250, 500 nM, compared to 1) was “concentration dependent increased intron retention”.

Regarding `CC[C@H](OC)[C@@H](C)[C@H]1O[C@@H]1[C@@H](O)[C@H](C)/C=C/C=C(\C)[C@H]1OC(=O)C[C@@H](O)CC[C@@](C)(O)[C@@H](OC(C)=O)/C=C/[C@@H]1C` [Analog 1g, 3S,17S-FD-895], in the assay on SF3B2, the SF3B2 intron retention result is on record as “loss in intron retention”.

`CC[C@@H](OC)[C@H](C)[C@H]1O[C@@H]1[C@@H](O)[C@H](C)/C=C/C=C(\C)[C@H]1OC(=O)C[C@H](O)CC[C@@](C)(O)[C@@H](OC(C)=O)/C=C/[C@@H]1C` [Analog 1j, 17S,20S,21R-FD-895]: the “splicing activity over the genes tested” value in the assay with HCT116 tumor cells is “splicing profile comparable to 1i”. The “SF3B2 intron retention (level of intron retention)” value in the assay with SF3B2 was “improved efficacy”. The “SF3A1 intron 6 retention (level of intron retention)” value with SF3A1 is reported as “more effective than 1”.

As to `CC[C@H](OC)[C@@H](C)[C@@H]1O[C@H]1[C@@H](O)[C@H](C)/C=C/C=C(\C)[C@H]1OC(=O)C[C@H](O)CC[C@@](C)(O)[C@@H](OC(C)=O)/C=C/[C@@H]1C` [Analog 1i, 17S,18S,19S-FD-895], the “splicing activity over the genes tested” value in the assay with HCT116 tumor cells is “drastic reduction in splicing activity”. In the assay on SF3B2, the “SF3B2 intron retention (level of intron retention)” value is given as “improved efficacy”. The “SF3A1 intron 6 retention (level of intron retention)” value with SF3A1 is given as “more effective than 1”.
